Entries after “also recorded” stand apart in the source; their conditions may differ.
Assays:
IGF-1 [1] = assay: IGF-1 gene expression in human synovial explants; assay type: cell-based; details: for IGF-1 gene expression and production: synovial explants, together with glucose, overall conclusion
Procedure: Synovial explants (N=6) were harvested from human donors undergoing either uni-compartmental or total knee replacement. In all but the first experiment, the specimens were trimmed of extraneous adipose tissue and washed in low glucose DMEM (1 g/l). The specimens in the first experiment were not trimmed of excess adipose tissue and were washed in high-glucose DMEM (4.5 g/L).
In the first experiment (n=2), the specimens were cultured for 48 hours in 0.1% calf serum and either high- or low-glucose DMEM. In the second tow experiments (n=4), the specimens were cultured for 48 hours in serum-free ITS (Insulin, Transferrin, Selenium) media diluted with either high- or low-glucose DMEM. IGF-1 gene expression. Briefly, total RNA was extracted from synovial tissue using RNeasy Total RNA Kit (Qiagen, Inc., Santa Clarita, Calif.). Real-time quantitative RT-PCR was done using Taqman RT-PCR reagents (Applied Biosystems, Foster City, Calif.).
(§1) Expression of IGF-1 was normalized to that of the housekeeping gene GAPDH. IGF-1 ELISA. Human IGF-1 protein secretion into the culture media was measured by ELISA (RD Systems, Minneapolis, Minn.). Synovial culture media was centrifuged to remove any particulates. Controls and samples were added to ELISA wells which were pre-coated with a monoclonal antibody specific for IGF-1. Any IGF-1 present would be expected to be bound by the immobilized antibody. After washing away any unbound substances, an enzyme-linked polyclonal antibody specific for IGF-1 was added to the wells. Following a wash to remove any unbound antibody-enzyme reagent. a substrate solution was added to the wells. The medial developed a color intensity in proportion to the amount of IGF-1 bound in the initial step. Optical density of each well was determined by using a microplate reader set to 450 nm. IGF-1 activity obtained by serial dilution of known protein concentrations.
(§2) Synovial explants (n=6) were harvested from human donors undergoing total knee replacement. The specimens were trimmed of extraneous adipose tissue. In the two experiments, the synovial specimens were washed in low-glucose DMEM (1 g/L) for a few hours and then placed in the assigned treatment groups. In subsequent experiments the synovial specimens were washed in low-glucoses DMEM for 24 hours before treatment.
(§3) In all experiments (n=4), the specimens were cultured for 48 hours in serum-free ITS (Insulin, Transferrin, Selenium) media diluted with either high- or low-glucose DMEM. In addition, various anthocyanins were added to both the high- and low-glucose groups. Low-glucose alone acted as a control group. After the two experiments, the level of media was adjusted relative to the weight of the tissue.
Briefly, total RNA was extracted from synovial tissue using RNeasy Total RNA Kit (Qiagen Inc., Santa Clarita, Calif.). Real-time quantitative RT-PCR was done using ‘ragman RT-PCR. reagents (Applied Biosystems, Foster City, Calif.). Expression of IGF-1 was normalized to that of the housekeeping gene GAPDH. The results of IGF-1 gene expression are only presented if detectable levels of low glucose alone were present and able to serve as a control group for relative-fold change in expression.

IGF-1 [2] = assay: IGF-1 ELISA of culture media of human synovial explants; assay type: cell-based; details: for IGF-1 protein release in media: high vs low glucose
Procedure: as §2, §3
as §1, with “Human IGF-1” for “Expression of IGF-1 was normalized to that of the housekeeping gene GAPDH. IGF-1 ELISA. Human IGF-1”, “by ELISA (R & D Systems, Minneapolis,” for “by ELISA (RD Systems, Minneapolis,”, “unbound antibody-enzyme reagent, a substrate” for “unbound antibody-enzyme reagent. a substrate”, “wells. The media developed a” for “wells. The medial developed a”, “nm. IGF-1 concentration in the sample was calculated by a standardized curve of IGF-I activity obtained” for “nm. IGF-1 activity obtained”

[3] = FIG. 22, volume titrated to tissue weight, in high glucose
[4] = increasing glucose concentration, synovial tissue

Oc1cc(O)c2cc(O)c(-c3ccc(O)c(O)c3)[o+]c2c1 [Cyanidin chloride]
IGF-1 gene expression relative to low glucose alone (IGF-1 [1]; FIG. 27, in the presence of high glucose): highest expression levels
IGF-1 gene expression and production (IGF-1 [1]): elevate IGF-1 gene expression and production
IGF-1 protein levels in media (IGF-1 [2]; FIG. 21, 7 ml of media regardless of sample weight, with High Glucose, listed as Cyanidin): highest IGF-1 protein levels
IGF-1 protein levels in media (IGF-1 [2]; FIG. 21, 7 ml of media regardless of sample weight, with High Glucose, listed as cyanidin): highest levels of IGF-1 in media
IGF-1 protein levels in media (IGF-1 [2]; FIG. 22, volume titrated to tissue weight, combined with low glucose, listed as Cyanidin): greatest effect
IGF-1 protein levels in media (IGF-1 [2]; FIG. 22, volume titrated to tissue weight, combined with low glucose, listed as cyanidin): greatest production of IGF-1 protein levels
IGF-1 protein levels in media (IGF-1 [2]; [3]): inhibitory
level of IGF-1 protein in media (IGF-1 [2]; FIG. 26, lower anthocyanin concentration (5 mM), in the presence of low glucose): highest level of IGF-1 protein

OC[C@H]1O[C@@H](Oc2cc3c(O)cc(O)cc3[o+]c2-c2ccc(O)c(O)c2)[C@H](O)[C@@H](O)[C@@H]1O.[Cl-] [Kuromanin chloride]
IGF-1 gene expression (IGF-1 [1]; FIG. 24, in the presence of high glucose): inhibitory
IGF-1 gene expression relative to low glucose alone (IGF-1 [1]; FIG. 24, in the presence of low glucose): 3 fold
IGF-1 gene expression and production (IGF-1 [1]): elevate IGF-1 gene expression and production
IGF-1 protein levels in media (IGF-1 [2]; FIG. 22, volume titrated to tissue weight, combined with low glucose, listed as Kuromanin): greatest effect
IGF-1 protein levels in media (IGF-1 [2]; FIG. 22, volume titrated to tissue weight, combined with low glucose, listed as kuromanin): greatest production of IGF-1 protein levels
IGF-1 protein levels in media (IGF-1 [2]; [3]): inhibitory

O=C[C@H](O)[C@@H](O)[C@H](O)[C@H](O)CO [glucose]
IGF-1 gene expression relative to low glucose alone (IGF-1 [1]; FIG. 24, High glucose alone): over 4 fold
IGF-1 gene expression relative to low glucose alone (IGF-1 [1]; FIG. 27, High Glucose alone, grossly inflamed sample (RH)): highest expression levels
increase in IGF-1 gene expression compared to low glucose alone (IGF-1 [1]; FIG. 28, High Glucose alone): 12 fold
increase of IGF-1 gene expression (IGF-1 [1]; high (4.5 g/L) vs low (1 g/L) glucose, 48 hours, three donors): up to 5 fold
IGF-1 gene expression (IGF-1 [1]; [4]): increase both IGF-1 gene expression and IGF-1 release; also recorded: significantly increase; also recorded: consistently increased IGF-1 gene expression
level of IGF-1 protein in media (IGF-1 [2]; FIG. 23, volume titrated to tissue weight, High Glucose alone (highest level)): above 2.00 ng/ml
level of IGF-1 protein in media (IGF-1 [2]; FIG. 25, volume titrated to tissue weight, High Glucose alone): highest level of IGF-1 protein
level of IGF-1 protein in media (IGF-1 [2]; FIG. 26, High Glucose alone): highest level of IGF-1 protein
IGF-I protein expression (IGF-1 [2]; High Glucose alone, across the experiments of Example 7): most consistent increase in IGF-I protein expression
IGF-1 levels in media, on average (IGF-1 [2]; high (4.5 g/L) vs low (1 g/L) glucose, 48 hours, 6 donors): more than doubled
increase of IGF-1 in media, tissue that responded the most (IGF-1 [2]; high glucose, donor undergoing unicompartmental arthroplasty): 5 ×
IGF-1 protein release in media (IGF-1 [2]; four donors): significant response
IGF-1 protein release in media (IGF-1 [2]; two donors): no effect on IGF-1 protein release in media
IGF-1 secretion (IGF-1 [2]; [4]): increase both IGF-1 gene expression and IGF-1 release; also recorded: increased IGF-1 secretion in synovial tissue, but in a donor dependent fashion

Reference: patent publication US9987296B2, “Compositions including anthocyanin or anthocyanidin for the prevention or treatment of Articular cartilage-associated conditions” (priority 2008, dated 2018)
